Laboratory results taken from US20240140975A1, “ANTIVIRAL APPLICATION OF NUCLEOSIDE ANALOG OR COMBINATION FORMULATION CONTAINING NUCLEOSIDE ANALOG” (priority 2020, published 2024).
Where two headings read alike, the source gives them in different places.

What was measured:
[1] = system: Zika virus (Zika); experiment: Cytopathic effect (CPE) assay, Zika virus in Huh7; assay type: cell-based; details: for EC50: Huh-7, Huh7 cells, CPE
[2] = in vivo; details: male, CD-1, mouse
[3] = system: respiratory syncytial virus (RSV); experiment: Cytopathic effect (CPE) assay, RSV in HEp-2; assay type: cell-based; details: human respiratory syncytial virus, HEp-2 cells
[4] = in vitro; details: human
[5] = system: 2019 novel coronavirus (SARS-CoV-2); experiment: microbe, parasite or virus in culture; assay type: cell-based; details: Vero E6 cells, 24 h p.i.; for inhibition at 5 µM: Severe acute respiratory syndrome coronavirus 2, Vero C1008, 24 h, read-out: Inhibition Rate (5 μM); for EC50: Severe acute respiratory syndrome coronavirus 2, Vero C1008, read-out: EC50
[6] = system: human coronavirus OC43 (HCoV OC43); experiment: Cytopathic effect (CPE) assay, HCoV OC43 in Huh7; assay type: cell-based; details: Betacoronavirus 1, OC43, Huh-7, Huh7 cells
Procedure: The inhibitory effects of compounds on the replication of respiratory syncytial virus (RSV), human coronavirus OC43, influenza A virus, Zika virus (Zika) were tested using cytopathic effect (CPE) assay.
Experimental cells were inoculated in 96-well cell culture plate at a certain cell density, and cultured in an incubator (5% CO2, 37° C.) overnight. Compounds and viruses were added on the second day. […] Then cell viability of each well was detected using Cell Titer-Glo or CCK-8. […] The cytotoxicity test method was the same as the corresponding antiviral test method without virus infection.
The antiviral activity and cytotoxicity of the compounds are respectively indicated by the inhibition rate (%) of compounds on virus-induced cellular viral effects and cell viability (%). Calculating formulas are as follows:
Inhibition rate (%)=(reading value of test well—average value of virus control)/(average value of cell control—average value of virus control)×100;
EC50 and CC50 value are calculated by Prism software, and the inhibition curve fitting method is “log (inhibitor) vs. response—Variable slope”.

[7] = set-up: species or system SD rats; details: male, Sprague-Dawley (SD), rat, in vivo
Procedure: 18 male SD rats were randomly divided into 6 groups, with 3 rats for each group. Before the experiment, they were fasted for 12 hours (not for the intravenous experiment group) and allowed to drink water. 4 hours after dosing, the animals were fed. Among them, 3 groups were intragastrically administered with 10 mg/kg of A9, A146 and A151, respectively, and the remaining 3 groups were intravenously administered with 2 mg/kg of A9, A146 and A151, respectively. The vehicle for administration was DMSO/EtOH/PEG300/0.9% NaCl (5/5/40/50, v/v/v/v).
5 min (intravenous only), 0.25, 0.5, 1.0, 2.0, 4.0, 6.0, 8.0 and 24 h post administration, 0.2 mL of blood sample was collected from jugular vein into EDTA-K2 tubes, and centrifuged at 11000 rpm for 5 min. The plasma was separated, and frozen in a refrigerator at −70° C. for testing. The operation was conducted in an ice water bath. The concentration of A9 in plasma was determined by LC-MS-MS, and the pharmacokinetic parameters were calculated.

[8] = system: porcine epidemic diarrhea virus (PEDV); experiment: Anti-porcine epidemic diarrhea virus (PEDV) activity test in Vero cells, fluorescence quantitative PCR; assay type: cell-based; details: 36 h
[9] = Pharmacokinetic evaluation in mice
[10] = system: dengue fever virus (DENV); experiment: Dengue virus plaque reduction test in Vero cells; assay type: cell-based; details: Dengue virus, read-out: DENV (Vero) 5 μM (inhibition rate), 5 μM, plaque reduction
[11] = in vitro; details: human; remark: listed apart in the source
[12] = Tissue distribution test in mice; assay type: in vivo, CD-1 mice; details: oral administration of A151, liver, kidney, lung, heart
Procedure: 16 male CD-1 mice were randomly divided into 4 groups, with 4 mice for each group.
Before the experiment, they were fasted for 12 hours and allowed to drink water. 2 hours after dosing, the animals were fed. The 4 groups were given 200 mg/kg A151 (dissolved in DMSO-enthanol-PEG300-saline, volume ratio: 5/5/40/50) by intragastric administration. At 1 h, 2 h, 4 h and 8 h after administration, the mice were anesthetized; blood sample was collected by heart puncture, and tissues of liver, kidney, heart and lung were harvested. The distribution profile of A9 in the tissues was determined by HPLC-MS/MS.

[13] = Porcine epidemic diarrhea virus, Vero
[14] = male, CD-1, mouse, in vivo, po, 50 mg/kg

Row | SMILES | EC50 [1] [µM] | half-life ([2]; po, 50 mg/kg) [h] | EC50 [3] [µM] | CC50 [4] [µM] | inhibition at 5 µM [5] [%] | EC50 [5] [µM] | EC50 [6] [µM] | F % (oral bioavailability) [7] [%] | T1/2 ([7]; iv, 2 mg/kg) [h] | T1/2 ([7]; po, 10 mg/kg) [h] | EC50 [8, 13] [µM] | AUC(0-inf) [9, 14] [ng·h/mL] | AUC(0-t) [9, 14] [ng·h/mL] | Cmax [9, 14] [ng/mL] | Tmax [9, 14] [h] | CC50 [11] [µM] | also measured
1 | [2H]c1cc([C@]2(C#N)O[C@H](CO)[C@@H](O)[C@H]2O)n2ncnc(N)c12 [Compound A9] | 12 | 1 | 0.56 | > 10 | 99 | 0.44 | 1.77 | 21.3 | 2.3 | 3.4 | 0.016 | 6010 | 5980 | 3230 | 1.2 | > 10 | inhibition at 5 µM [10]: 100%
2 | [2H]C([2H])(O)[C@H]1O[C@@](C#N)(c2ccc3c(N)ncnn23)[C@H](O)[C@@H]1O [Compound A10] |  | 1.3 | 0.63 | > 10 | 99 | 0.43 | 1.98 |  |  |  | 0.006 | 4620 | 4550 | 1760 | 0.8 | > 10 | 
3 | [2H]c1cc([C@]2(C#N)O[C@H](COC(=O)C(C)C)[C@@H](O)[C@H]2O)n2ncnc(N)c12 [Compound A70] |  |  | 0.58 | > 10 | 99 |  | 1.9 |  |  |  | 0.002 |  |  |  |  | > 10 | inhibition at 5 µM ([1]; Huh-7, 5 μM, Huh7 cells): ~27%
4 | [2H]c1cc([C@]2(C#N)O[C@H](COC(=O)C(C)C)[C@@H](OC(=O)C(C)C)[C@H]2OC(=O)C(C)C)n2ncnc(N)c12 [Compound A151] |  |  | 0.63 | > 10 | 99 | 0.31 | 1.99 | 56.7 | 1.5 | 2.6 | < 0.1 |  |  |  |  |  | tissue distribution of metabolite A9 (in words) [12]: evenly distributed, without accumulation in liver or kidney
5 | N#C[C@@]1(c2ccc3c(N)ncnn23)O[C@H](CO)[C@@H](O)[C@H]1O [GS-441524, reference compound] | 15 | 1.2 | 0.73 | > 10 | 99 | 0.48 | 1.88 |  |  |  |  | 4620 |  |  |  | > 10 | half-life ([2]; iv, 25 mg/kg): 1 h; EC50 [8]: 0.026 µM; AUC(0-inf) ([9]; male, CD-1, mouse, in vivo, iv, 25 mg/kg): 14600 ng·h/mL; Tmax ([9]; mice, p.o. 50 mg/kg, plasma): 0.8 h
